{"source": "patent US4292241A", "about": "“Antibiotic PA-31088-IV and production thereof” (Shionogi & Co., Ltd., priority 1979, dated 1981)", "key": {"P. vulgaris 50": {"test_system": "P. vulgaris 50", "test": "Synergistic activity with other β-lactam antibiotics (MIC)", "format": "cell-based", "text": "(§1) (c) Synergistic activity with other β-lactam antibiotics"}, "S. marcescens 39": {"test_system": "S. marcescens 39", "test": "Synergistic activity with other β-lactam antibiotics (MIC)", "format": "cell-based", "text": "as §1"}, "S. aureus 2132": {"test_system": "S. aureus 2132", "test": "Synergistic activity with other β-lactam antibiotics (MIC)", "format": "cell-based"}, "[1]": {"target": "lactamase of cephalosporinase type (Enterobactor cloacae 92) (Enterobacter cloacae, UniProt P05364)", "sequence (P05364 21-381)": "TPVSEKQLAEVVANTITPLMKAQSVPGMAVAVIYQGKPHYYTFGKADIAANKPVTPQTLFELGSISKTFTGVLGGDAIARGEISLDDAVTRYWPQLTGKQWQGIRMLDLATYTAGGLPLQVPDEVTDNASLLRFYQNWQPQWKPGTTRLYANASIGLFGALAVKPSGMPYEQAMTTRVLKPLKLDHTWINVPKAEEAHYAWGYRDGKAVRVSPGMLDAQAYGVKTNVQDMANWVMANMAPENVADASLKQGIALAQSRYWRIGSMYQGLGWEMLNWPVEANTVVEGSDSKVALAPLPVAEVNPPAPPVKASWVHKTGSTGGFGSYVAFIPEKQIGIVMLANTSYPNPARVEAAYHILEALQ", "test": "β-Lactamase inhibitory activity", "format": "biochemical", "conditions": "β-lactamase producing bacteria Enterobactor cloacae 92, cephalosporinase type", "text": "(§2) (b) β-Lactamase inhibitory activity\n*produces lactamase of cephalosporinase type"}, "[2]": {"test_system": "lactamase of penicillinase type (Klebsiella sp. 363)", "test": "β-Lactamase inhibitory activity", "format": "biochemical", "conditions": "β-lactamase producing bacteria Klebsiella sp. 363, penicillinase type", "text": "as §2\n**produces lactamase of penicillinase type"}, "Klebsiella sp. 363 (R)": {"test_system": "Klebsiella sp. 363 (R)", "test": "Antibacterial spectrum (MIC)", "format": "cell-based", "conditions": "inoculum one loopful of 10^6 cfu/ml", "text": "(§3) (a) Antibacterial spectrum | Inoculum size = one loopful of 10^6 cfu/ml"}, "[3]": {"test_system": "Staphylococcus aureus 209P JC-1", "test": "Antibacterial spectrum (MIC)", "format": "cell-based", "conditions": "inoculum one loopful of 10^6 cfu/ml", "text": "as §3"}, "Enterobactor cloacae 233": {"test_system": "Enterobactor cloacae 233", "test": "Antibacterial spectrum (MIC)", "format": "cell-based", "conditions": "inoculum one loopful of 10^6 cfu/ml", "text": "as §3"}, "Proteus mirabilis PR-4": {"test_system": "Proteus mirabilis PR-4", "test": "Antibacterial spectrum (MIC)", "format": "cell-based", "conditions": "inoculum one loopful of 10^6 cfu/ml", "text": "as §3"}, "[4]": {"test_system": "Escherichia coli NIHJ JC-2", "test": "Antibacterial spectrum (MIC)", "format": "cell-based", "conditions": "inoculum one loopful of 10^6 cfu/ml", "text": "as §3"}, "[5]": {"test_system": "Serratia marcescens ATCC 13880", "test": "Antibacterial spectrum (MIC)", "format": "cell-based", "conditions": "inoculum one loopful of 10^6 cfu/ml", "text": "as §3"}, "[6]": {"test_system": "Pseudomonas aeruginosa ATCC 25619", "test": "Antibacterial spectrum (MIC)", "format": "cell-based", "conditions": "inoculum one loopful of 10^6 cfu/ml", "text": "as §3"}, "[7]": {"test_system": "Streptococcus pneumoniae I", "test": "Antibacterial spectrum (MIC)", "format": "cell-based", "conditions": "inoculum one loopful of 10^6 cfu/ml", "text": "as §3"}, "[8]": {"test_system": "Klebsiella pneumoniae SRL-1", "test": "Antibacterial spectrum (MIC)", "format": "cell-based", "conditions": "inoculum one loopful of 10^6 cfu/ml", "text": "as §3"}}, "data": [{"smiles": "Cc1nnc(SCC2=C(C(=O)O)N3C(=O)[C@@H](NC(=O)Cn4cnnn4)[C@H]3SC2)s1", "note": "[Cefazolin, cefazolin]", "values": [{"measurement": "MIC of Cefazolin", "setting": "P. vulgaris 50; PA-31088-IV 0 μg/ml", "value": "> 200", "unit": "µg/mL"}, {"measurement": "MIC of Cefazolin", "setting": "P. vulgaris 50; with PA-31088-IV 2.5 μg/ml", "value": 6.3, "unit": "µg/mL"}, {"measurement": "MIC of Cefazolin", "setting": "P. vulgaris 50; with PA-31088-IV 10 μg/ml", "value": 3.1, "unit": "µg/mL"}, {"measurement": "MIC of Cefazolin", "setting": "S. marcescens 39; PA-31088-IV 0 μg/ml", "value": "> 200", "unit": "µg/mL"}, {"measurement": "MIC of Cefazolin", "setting": "S. marcescens 39; with PA-31088-IV 2.5 μg/ml", "value": 6.3, "unit": "µg/mL"}, {"measurement": "MIC of Cefazolin", "setting": "S. marcescens 39; with PA-31088-IV 10 μg/ml", "value": 0.4, "unit": "µg/mL"}, {"measurement": "MIC of Cefazolin", "setting": "S. aureus 2132; PA-31088-IV 0 μg/ml", "value": 6.3, "unit": "µg/mL"}, {"measurement": "MIC of Cefazolin", "setting": "S. aureus 2132; with PA-31088-IV 2.5 μg/ml", "value": 0.8, "unit": "µg/mL"}, {"measurement": "MIC of Cefazolin", "setting": "S. aureus 2132; with PA-31088-IV 10 μg/ml", "value": 0.4, "unit": "µg/mL"}]}, {"smiles": "CC(=O)NC=CS(=O)(=O)C1=C(C(=O)O)N2C(=O)C(=C(C)CO)C2C1", "note": "(centres unmarked) [PA-31088-IV, 3-[(2-acetamidoethylene)sulfonyl]-6-(2-hydroxy-1-methylethylidene)-7-oxo-1-azabicyclo[3.2.0]hept-2-ene-2-carboxylic acid]", "values": [{"measurement": "Minimum Inhibitory Concentration (β-lactamase inhibitory activity)", "setting": "[1]", "value": 0.98, "unit": "µg/mL"}, {"measurement": "MIC of PA-31088-IV", "setting": "P. vulgaris 50; PA-31088-IV alone", "value": "> 10", "unit": "µg/mL"}, {"measurement": "MIC of PA-31088-IV", "setting": "S. marcescens 39; PA-31088-IV alone", "value": "> 10", "unit": "µg/mL"}, {"measurement": "MIC of PA-31088-IV", "setting": "S. aureus 2132; PA-31088-IV alone", "value": "> 10", "unit": "µg/mL"}, {"measurement": "Minimum Inhibitory Concentration (β-lactamase inhibitory activity)", "setting": "[2]", "value": 0.06, "unit": "µg/mL"}, {"measurement": "Minimum Inhibitory Concentration", "setting": "Klebsiella sp. 363 (R)", "value": 3.13, "unit": "µg/mL"}, {"measurement": "Minimum Inhibitory Concentration", "setting": "[3]", "value": 3.13, "unit": "µg/mL"}, {"measurement": "Minimum Inhibitory Concentration", "setting": "Enterobactor cloacae 233", "value": 3.13, "unit": "µg/mL"}, {"measurement": "Minimum Inhibitory Concentration", "setting": "Proteus mirabilis PR-4", "value": 6.25, "unit": "µg/mL"}, {"measurement": "Minimum Inhibitory Concentration", "setting": "[4]", "value": 3.13, "unit": "µg/mL"}, {"measurement": "Minimum Inhibitory Concentration", "setting": "[5]", "value": 12.5, "unit": "µg/mL"}, {"measurement": "Minimum Inhibitory Concentration", "setting": "[6]", "value": 50, "unit": "µg/mL"}, {"measurement": "Minimum Inhibitory Concentration", "setting": "[7]", "value": 0.39, "unit": "µg/mL"}, {"measurement": "Minimum Inhibitory Concentration", "setting": "[8]", "value": 1.56, "unit": "µg/mL"}]}, {"smiles": "CC1(C)S[C@@H]2[C@H](NC(=O)[C@H](N)c3ccccc3)C(=O)N2[C@H]1C(=O)O", "note": "[Ampicillin, ampicillin]", "values": [{"measurement": "MIC of Ampicillin", "setting": "P. vulgaris 50; PA-31088-IV 0 μg/ml", "value": "> 200", "unit": "µg/mL"}, {"measurement": "MIC of Ampicillin", "setting": "P. vulgaris 50; with PA-31088-IV 2.5 μg/ml", "value": 6.3, "unit": "µg/mL"}, {"measurement": "MIC of Ampicillin", "setting": "P. vulgaris 50; with PA-31088-IV 10 μg/ml", "value": 1.6, "unit": "µg/mL"}, {"measurement": "MIC of Ampicillin", "setting": "S. marcescens 39; PA-31088-IV 0 μg/ml", "value": "> 200", "unit": "µg/mL"}, {"measurement": "MIC of Ampicillin", "setting": "S. marcescens 39; with PA-31088-IV 2.5 μg/ml", "value": 3.1, "unit": "µg/mL"}, {"measurement": "MIC of Ampicillin", "setting": "S. marcescens 39; with PA-31088-IV 10 μg/ml", "value": 0.1, "unit": "µg/mL"}]}]}
